Results as given in ChEMBL document CHEMBL2074437, “Expression and transport properties of the human ileal and renal sodium-dependent bile acid transporter” (Am J Physiol, 1998).

Assays:
Type in all cases: functional, cell-based
[1] = target: T1, Ileal sodium/bile acid cotransporter (Homo sapiens, UniProt Q12908); assay: TP_TRANSPORTER: inhibition of Taurocholate uptake in ASBT-expressing COS cells
T1 sequence (Q12908 whole entry): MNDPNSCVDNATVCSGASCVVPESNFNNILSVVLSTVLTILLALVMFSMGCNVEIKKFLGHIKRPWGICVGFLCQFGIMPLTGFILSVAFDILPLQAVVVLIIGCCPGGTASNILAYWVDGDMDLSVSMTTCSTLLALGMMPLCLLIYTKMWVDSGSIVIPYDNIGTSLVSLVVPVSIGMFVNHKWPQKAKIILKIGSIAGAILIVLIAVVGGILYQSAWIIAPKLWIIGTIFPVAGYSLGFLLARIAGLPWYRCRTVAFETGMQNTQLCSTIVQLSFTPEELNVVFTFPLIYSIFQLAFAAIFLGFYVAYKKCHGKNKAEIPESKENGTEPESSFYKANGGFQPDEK

[2] = substrate: C[C@H](CCC(=O)NCC(=O)O)[C@H]1CC[C@H]2[C@@H]3[C@@H](O)C[C@@H]4C[C@H](O)CC[C@]4(C)[C@H]3CC[C@]12C; assay: (§1) TP_TRANSPORTER: uptake in ASBT-expressing COS cells
[3] = substrate: C[C@H](CCC(=O)NCC(=O)O)[C@H]1CC[C@H]2[C@@H]3[C@H](O)C[C@@H]4C[C@H](O)CC[C@]4(C)[C@H]3CC[C@]12C; assay: as §1
[4] = substrate: C[C@H](CCC(=O)NCC(=O)O)[C@H]1CC[C@H]2[C@@H]3CC[C@@H]4C[C@H](O)CC[C@]4(C)[C@H]3C[C@H](O)[C@]12C; assay: as §1

C[C@H](CCC(=O)O)[C@H]1CC[C@H]2[C@@H]3[C@H](O)C[C@@H]4C[C@H](O)CC[C@]4(C)[C@H]3CC[C@]12C [CHENODIOL]
Ki [1]: 3.3 µM

C[C@H](CCC(=O)NCCS(=O)(=O)O)[C@H]1CC[C@H]2[C@@H]3CC[C@@H]4C[C@H](O)CC[C@]4(C)[C@H]3C[C@H](O)[C@]12C [TAURODEOXYCHOLIC ACID]
Ki [1]: 17.2 µM

O=C1OC(c2ccc(O)c(S(=O)(=O)O)c2)(c2ccc(O)c(S(=O)(=O)O)c2)c2c(Br)c(Br)c(Br)c(Br)c21 [SULFOBROMOPHTHALEIN SODIUM]
Ki [1]: 144 µM

C[C@H](CCC(=O)O)[C@H]1CC[C@H]2[C@@H]3CC[C@@H]4C[C@H](O)CC[C@]4(C)[C@H]3C[C@H](O)[C@]12C [DEOXYCHOLIC ACID]
Ki [1]: 6.3 µM
Ki ([1]; cos): 6.3 µM

C[C@H](CCC(=O)O)[C@H]1CC[C@H]2[C@@H]3[C@@H](O)C[C@@H]4C[C@H](O)CC[C@]4(C)[C@H]3CC[C@]12C [URSODIOL]
Ki [1]: 75 µM

C[C@H](CCC(=O)NCCS(=O)(=O)O)[C@H]1CC[C@H]2[C@@H]3[C@H](O)C[C@@H]4C[C@H](O)CC[C@]4(C)[C@H]3CC[C@]12C [TAUROCHENODEOXYCHOLATE]
Ki [1]: 6.1 µM

C[C@H](CCC(=O)NCCS(=O)(=O)O)[C@H]1CC[C@H]2[C@@H]3[C@@H](O)C[C@@H]4C[C@H](O)CC[C@]4(C)[C@H]3CC[C@]12C [TAURURSODIOL]
Ki [1]: 28 µM

B1: Ileal sodium/bile acid cotransporter (Homo sapiens) (protein)
chain: T1 sequence (Q12908 whole entry)
Km [2]: 4.1 µM
Km [3]: 5.7 µM
Km [4]: 2 µM
